From patent US20250332167A1, “PHARMACEUTICAL USE OF CDK 4/6 INHIBITOR” (priority 2021, published 2025) come the findings set out here.

The structures appear in SMILES notation. “And” between values parts separate entries of the source, which are not always exact repeats. Identical values can stand only once.

In one series the test system is NCI-H1703. Kind of series: Proliferation inhibition, non-small cell lung cancer cell line NCI-H1703. The conditions noted are these: Homo sapiens, NCI-H1703, 72 h. It is filed as cell-based. On the procedure: (§1) Sixteen non-small cell lung cancer cell lines, including NCI-H1792, NCI-H1703, NCI-H441, SNU-761, NCI-H1975, NCI-H358, NCI-H1838, NCI-H1915, A549, SK-MES-1, NCI-H292, PC-9, NCI-H460, NCI-H23, NCI-H1581, and HLF, were used for the proliferation inhibition assay of the present invention compound. […] The cell detection equipment used was In Cell Analyzer 2200 (GE Healthcare).
(§2) With 60 μM as the initial concentration, ten points were obtained by serial five-fold dilution.
(§3) Each kind of cell in logarithmic growth phase was inoculated with 4000 cells/100 μl/well into a black transparent bottom 96-well plate and cultured overnight at 37° C. The next day, the plate was taken out, and 20 μL of the prepared sample dilutions was added to each well. The plate was then subjected to treatment at 37° C. for 72 hours. After the treatment period of 72 hours, the plate was taken out and 50 μL of neutral formaldehyde fixative (formaldehyde: PBS=1:9, 50 μl/well) was added to each well. The plate was then fixed at room temperature for 10-30 minutes. Subsequently, the wells were washed twice with 1× PBS (100 μl/well) and treated with 0.2% Triton™-X100 for 5-10 minutes to permeabilize the cells. […] The inhibitory rates of each compound at different concentration points were calculated by using the following formula, and IC50 values were obtained through curve fitting using GraphPad Prism 6.0 software.

A further series concerns NCI-H358. Kind of series: Proliferation inhibition, non-small cell lung cancer cell line NCI-H358. It is filed as cell-based. The conditions noted are these: Homo sapiens, NCI-H358, 72 h. On the procedure:
as §1, §2, §3

The next series relates to NCI-H441. Kind of series: Proliferation inhibition, non-small cell lung cancer cell line NCI-H441. The following applies: Homo sapiens, NCI-H441, 72 h. Type of series: cell-based. The procedure: as §1, §2, §3
Another series deals with SNU-761. Kind of series: Proliferation inhibition, non-small cell lung cancer cell line SNU-761. The following applies: Homo sapiens; SNU-761, 72 h. It is filed as cell-based. On the procedure:
as §1, §2, §3

The next series concerns NCI-H1792. Kind of series: Proliferation inhibition, non-small cell lung cancer cell line NCI-H1792. The following applies: Homo sapiens, NCI-H1792, 72 h. It is filed as cell-based. The procedure: as §1, §2, §3
The next series deals with NCI-H1975 xenograft. Kind of series: Human non-small cell lung cancer NCI-H1975 xenograft mouse model. Type of series: in vivo, Balb/c nude mice. The following applies: 25 mg/kg oral gavage once daily. The source says:
(§4) The formula for calculating tumor volume was: Tumor Volume (mm^3)=½×(a×b^2) (where “a” represents the long diameter and “b” represents the short diameter).
(§5) The relative tumor growth rate (T/C) is the percentage value of the relative tumor volume or weight between the treatment group and the control group at a certain time point. The calculation formula is as follows: • T/C(%)=TRTV/CRTV×100% (TRTV: Average RTV of the treatment group; CRTV: Average RTV of the Vehicle group; RTV=Vt/V0, where V0 is the tumor volume of the animal at the time of grouping and Vt is the tumor volume of the animal after treatment).
(§6) (T and C are the relative tumor volume (RTV) or weight (TW) of the treatment group and control group at a specific time point, respectively).
NCI-H1975 cells were cultured in RPMI1640 medium containing 10% fetal bovine serum. Log-phase NCI-H1975 cells were collected, suspended in PBS to an appropriate concentration, and used for subcutaneous tumor implantation in Balb/c nude mice. Each female mouse was implanted with 0.1 ml of NCI-H1975 cells subcutaneously. When the average tumor volume reached 171 mm^3, the mice were randomly divided into groups based on tumor size.
The positive control drugs were Palbociclib and Abemaciclib.
Each group consisted of 8 mice, and oral gavage administration was performed once daily for a total of 21 days. Tumor volume and body weight changes were observed regularly, and efficacy evaluation was conducted based on relative tumor proliferation rate (T/C) and relative tumor growth inhibition rate (TGI). The calculation methods for tumor volume, T/C, and TGI are described in Example 3.

For the next series, the system named is NCI-H1838. Kind of series: Proliferation inhibition, non-small cell lung cancer cell line NCI-H1838. It is filed as cell-based. The following applies: Homo sapiens, NCI-H1838, 72 h. On the procedure: as §1, §2, §3
For series [1], the system named is Human glioblastoma model (BN2289). Kind of series: Human glioblastoma xenograft mouse model (BN2289). The conditions noted are these: 25 mg/kg oral gavage once daily, day 21. It is filed as in vivo, BALB/C nude mice.
Source text: Human glioblastoma model (BN2289, Crown Bioscience Co., Ltd.) tumor fragments were cut into small pieces with a diameter of 2-3 mm and subcutaneously inoculated into the right side of BALB/C nude mice. Tumor growth was monitored regularly, and when the tumors grew to an average volume of approximately 100-200 mm^3, mice were randomly divided into groups based on the tumor size.
Each group consisted of 8 mice and received oral gavage administration once daily for a total of 28 days. Regular observations were made on tumor volume and changes in body weight. Efficacy evaluation was conducted based on the relative tumor growth rate (T/C) and the relative tumor inhibition rate (TGI).
as §4, §5, §6

The test system of a further series is U118MG cells. Kind of series: Proliferation inhibition of human glioblastoma cells U118MG (DAPI cell count, 72 h). It is filed as cell-based. The following applies: U-118-MG, 72 h treatment. On the procedure: Human glioblastoma cell U118MG was purchased from NANJING COBIOER BIOSCIENCES CO., LTD. […] The cell detection equipment used was the In Cell Analyzer 2200 (GE Healthcare).
as §2
Medium for U118 MG is the MEM (low glucose) medium supplemented with 10% FBS, 1% penicillin/streptomycin, 1% sodium pyruvate, and 1% MEM NEAA. U118 MG cells were seeded at a density of 4000 cells/100 μL/well in a 96-well black clear-bottom plate and incubated at 37° C. overnight. The plate was then taken, and 20 μL of the prepared diluted samples was added to the wells. The cells were treated at 37° C. for 72 hours. After 72 hours, the plate was taken, and a neutral formaldehyde fixation solution (formaldehyde:PBS=1:9) was added at 50 μL/well. The cells were fixed at room temperature for 10-30 minutes. The wells were washed twice with 1× PBS (100 μL/well), and then permeabilized with 0.2% Triton™-X100 for 5-10 minutes (100 μL/well). […] The plate was scanned by using an In Cell Analyzer, and the number of cells in each well was analyzed. The inhibition rate of each compound at various concentration points was calculated by using the formula provided. The IC50 values were determined by curve fitting using GraphPad Prism 6.0 software.

For `CCN1CCN(Cc2ccc(Nc3ncc(F)c(-c4cc(F)c5nc(C)n(C(C)C)c5c4)n3)nc2)CC1` [Abemaciclib, reference compound], the concentration for half-maximal inhibition (IC50) in the series on NCI-H1703 turned out to be 93 nM; in the series with NCI-H358, 44 nM; in the series on NCI-H441, 40 nM; with SNU-761, 54 nM; with NCI-H1792, 23 nM; in the series on NCI-H1838 it was 90.2 nM. In the series on U118MG cells, the IC50 was found to be 86 ± 22.9 nM. In addition, in the series on NCI-H1975 xenograft (16 days after administration), the T/C stood at 93%. In the series with NCI-H1975 xenograft (16 days after administration), this compound yielded a TGI of 7%. The “Tumor volume (x ± S)” value in the series on NCI-H1975 xenograft (16 days after administration) is 2071 mm^3 and 2071 ± 148 mm^3. The “Day 21 Tumor Volume” value in series [1] was 1627.31 ± 100.66 mm^3.

With `CC(=O)c1c(C)c2cnc(Nc3ccc(N4CCNCC4)cn3)nc2n(C2CCCC2)c1=O` [Palbociclib, reference compound], in the series with NCI-H1975 xenograft (16 days after administration), the T/C was determined as 66%; the tumour growth inhibition (TGI) worked out at 34%; the “Tumor relative volume (x ± S)” value amounted to 7.7 ± 1.0; the “Tumor volume (x ± S)” value was 1469 mm^3 and 1469 ± 146 mm^3. Also, in the series with NCI-H1975 xenograft (Day 20 of treatment), the Body weight change result is reported as “slight decrease in body weight”. Moreover, in series [1], the “Day 21 Tumor Volume” value came to 1417.98 ± 121.86 mm^3, the “Relative Average Tumor Volume” value is 9.58, the “T/C (relative tumor growth rate)” value is reported as 66.01% and the “TGI (relative tumor inhibition rate)” value was determined as 33.99%.
